Source: a melting point compilation (Tetko et al.; mined from patent text by program, amines drawn as free bases though some values may be those of a salt)

Q: Which melting point does the source give for `CCCn1ccnc(S(=O)(=O)Cc2ccc(Cl)cc2)c1=O` here?
A: Its melting point is 125 to 128 °C.

Q: Which melting point does the source give for `CNC(=O)Nc1cc(C(C)(C)C)on1` here?
A: The melting point was 187 to 188 °C.

Q: Which melting point does the source give for `Cc1oc(-c2ccccc2)nc1COc1ccc2cc(CCCCC#N)oc2c1` here?
A: Its melting point is 87 to 88 °C.

Q: Which melting point does the source give for `CCCCCCCCCCCCCCCCCCNC(=O)OCC(CNS(=O)(=O)CCCI)NC(=O)OC` (stereo not given) here?
A: The melting point was 97 °C.

Q: Which melting point does the source give for `C[C@@H]1[C@@H](C(=O)Cc2ccccc2)C(=O)N1OCc1ccccc1` here?
A: The melting point was 97 to 99 °C.

Q: With `Cc1ccc2c(c1)N(CC(=O)c1cccs1)C(=O)C(NC(=O)Nc1cccc(C(=O)O)c1)CN2C(=O)C(C)(C)C` (stereo not given) as the compound, how does the melting point read?
A: Its melting point is 198 to 206 °C.

Q: Which melting point does the source give for `Cc1cccc(NC(=O)N(C)c2nc(-c3ccccc3)c(-c3ccc(=O)n(C(C)C)n3)s2)c1` here?
A: Its melting point is 157 to 158 °C.

Q: For `Cc1cc2nccn2nc1OCC(C)(C)CCCCS(N)(=O)=O`, which melting point is on record?
A: The melting point was 169 to 170 °C.

Q: For `COCC(C)NC1=NS(=O)(=O)c2cnccc2N1` (stereo not given), which melting point is on record?
A: The melting point was 174 to 178 °C.

Q: For `CCCCN1CCn2c1nc(C(=O)NCc1ccc(F)cc1-n1cnc(C)n1)c(OCc1ccccc1)c2=O`, which melting point is on record?
A: The melting point was 172 to 173 °C.

Q: With `CC#CN(C(C)=O)c1nc2ccccc2s1` as the compound, how does the melting point read?
A: Its melting point is 138 to 139 °C.

Q: With `O=C(c1ccccc1)c1cc(Cl)ccc1C#CCN1C(=O)c2ccccc2C1=O` as the compound, how does the melting point read?
A: The melting point was 130 to 133 °C.

Q: With `Cc1nnc(CO)n1-c1ccc(Cl)cc1C(=O)c1ccccc1` as the compound, how does the melting point read?
A: The melting point was 138 to 142 °C.

Q: With `Nc1scc2c1C(=O)c1c-2ccc(Cl)c1Cl` as the compound, how does the melting point read?
A: The melting point was 254 to 255 °C.

Q: For `CCOC(=O)C(NC(C)=O)(C(=O)OCC)C1=Nc2ccc(Br)cc2C(c2ccccn2)=NC1`, which melting point is on record?
A: Its melting point is 178 to 180 °C.

Q: For `O=C(Cn1ccnc1)c1cccs1`, which melting point is on record?
A: The melting point was 87 to 89 °C.

Q: Which melting point does the source give for `NS(=O)(=O)c1cccc(-c2cccc(-c3nc(-c4ccc(C(F)(F)F)nc4)cc(C(F)F)n3)c2)c1` here?
A: The melting point was 222 °C.

Q: For `COc1ccc2c(c1)C(=O)c1sc(-c3ccccc3)nc1C2=O`, which melting point is on record?
A: The melting point was greater than 260 °C.

Q: Which melting point does the source give for `O=[N+]([O-])c1ccc2c(ccn2Cc2cccnc2)c1` here?
A: The melting point was 131 to 134 °C.

Q: For `COc1cccc2c1N(CCCO)Cn1cc(CO)cc1-2`, which melting point is on record?
A: The melting point was 116 to 118 °C.

Q: For `O=[N+]([O-])c1ccc(Sc2cccc3cnccc23)nc1`, which melting point is on record?
A: Its melting point is 115 to 117 °C.

Q: With `Cc1ccc(O)c2c1CCC2=NO` as the compound, how does the melting point read?
A: Its melting point is 148 to 150 °C.

Q: For `COc1ccc2ccnc(Cl)c2c1`, which melting point is on record?
A: Its melting point is 77 to 78 °C.

Q: With `O=c1oc2cc(Br)ccc2c(O)c1[N+](=O)[O-]` as the compound, how does the melting point read?
A: The melting point was 155 to 157 °C.

Q: Which melting point does the source give for `Cc1ccc2c(c1)Oc1sc(C)cc1C(=O)N2` here?
A: The melting point was 211 to 215 °C.

Q: Which melting point does the source give for `Cc1ccnc(O)c1C#N` here?
A: The melting point was 230 to 232 °C.

Q: For `COC(=O)C(NS(=O)(=O)c1ccc(-c2ccc(NC(=O)c3oc4cccc(C(C)=O)c4c3C)cc2)cc1)C(C)C` (stereo not given), which melting point is on record?
A: Its melting point is 197 to 199 °C.

Q: For `NC(=O)c1c(N2CCN(Cc3ccccc3)CC2)nn2c(-c3cccc(C(F)(F)F)c3)ccnc12`, which melting point is on record?
A: Its melting point is 252 to 254 °C.

Q: With `CCOC(=O)c1cnc(N(C)Cc2cc3nc(-c4cccc(OCCO)c4)nc(N4CCOCC4)c3s2)nc1` as the compound, how does the melting point read?
A: The melting point was 216 to 220 °C.

Q: With `CCOC(=O)c1cnc2c(c1O)CCCCCCCC2` as the compound, how does the melting point read?
A: Its melting point is 212 to 230 °C.

Q: Which melting point does the source give for `COC(=O)CCCc1c(-c2ccc(F)cc2)[nH]c2ccc(-c3ccc([N+](=O)[O-])cc3)cc12` here?
A: Its melting point is 190 to 191 °C.

Q: For `CC1(C)CC(OC(=O)c2ccccc2)CC(C)(C)N1N=Nc1ccccc1`, which melting point is on record?
A: Its melting point is 89 to 91 °C.

Q: For `Cc1ccc(S(=O)(=O)c2nnnn2C)cc1`, which melting point is on record?
A: The melting point was 110 to 111 °C.

Q: For `c1ccc(-c2nsc(N3CCN(c4ccccn4)CC3)n2)cc1`, which melting point is on record?
A: The melting point was 137 to 138 °C.

Q: With `CN(C(=O)N1CC(C)(c2ccccc2)C(c2ccc(Cl)cc2)=N1)c1ccc(Cl)cc1` (stereo not given) as the compound, how does the melting point read?
A: The melting point was 132 to 135 °C.

Q: With `CC(=O)NC1CCN(c2ccc(Cl)cn2)CC1` as the compound, how does the melting point read?
A: Its melting point is 196 to 198 °C.

Q: Which melting point does the source give for `CCCCN(CCCC)c1ccc(C=Cc2cc(C)c(C=CC3=C(C#N)C(=C(C#N)C#N)OC3(c3ccccc3)C(F)(F)F)cc2C)c(OC)c1` (stereo not given) here?
A: Its melting point is 177 to 179 °C.

Q: For `CC(C)c1nc(Cc2ccccc2)c2c(c1O)COC2`, which melting point is on record?
A: Its melting point is 232 to 233 °C.

Q: Which melting point does the source give for `COC(=O)c1ccc(Cl)cc1NC(=O)Cc1ccsc1` here?
A: The melting point was 96 to 97 °C.

Q: Which melting point does the source give for `CNc1cc(SC2CCN(C)CC2)ccc1[N+](=O)[O-]` here?
A: The melting point was 90 °C.

Q: Which melting point does the source give for `COc1ccc2c3c(cn2S(=O)(=O)c2c(C(C)C)cc(C(C)C)cc2C(C)C)C[C@H]2N(C)C(=O)CO[C@]2(C)c13` (relative stereo) here?
A: The melting point was 155 to 157 °C.

Q: With `Cc1cc(C)cc(NC(=O)Cc2ccc(OC3(C(=O)N[C@@H](C)C(=O)O)CCCC3)cc2)c1` as the compound, how does the melting point read?
A: The melting point was 90 to 91 °C.

Q: Which melting point does the source give for `O=C(Nc1ccc(-n2nc(C(F)(F)F)cc2C(F)(F)F)cc1)c1cc(F)ccc1F` here?
A: The melting point was 168 to 169 °C.

Q: For `C=C(C)Cc1c(C)c(NC(C)=O)c(C)c(C)c1O`, which melting point is on record?
A: Its melting point is 209 to 210 °C.

Q: For `Cc1cn(-c2c(F)cc3c(=O)c(C(=O)O)cn(C4CC4)c3c2F)cn1`, which melting point is on record?
A: The melting point was 215 to 223 °C.

Q: Which melting point does the source give for `CCCCc1ccc(CCCCC(N)(CO)CO)cc1` here?
A: Its melting point is 92 to 94 °C.

Q: With `CCN1CCN(CCCOc2cc3ncc(C#N)c(Nc4cc(OC)c(Cl)cc4Cl)c3cc2OC)CC1` as the compound, how does the melting point read?
A: Its melting point is 102 to 104 °C.

Q: For `CC(C)(C)OC(=O)NCCCCCC(=O)OCC1OC(n2cc(C=CBr)c(=O)[nH]c2=O)CC1O` (stereo not given), which melting point is on record?
A: Its melting point is 204 to 205 °C.

Q: For `CC(=NC(C#N)=C(N)C#N)c1ccc2ccccc2c1`, which melting point is on record?
A: The melting point was 188 to 189 °C.

Q: Which melting point does the source give for `CC(C)(C)CC(C)(C)c1ccc2c(c1)C(=O)NS2(=O)=O` here?
A: The melting point was 213 to 215 °C.
